The values below come from patent US9840481B2, “Allosteric modulators of nicotinic acetylcholine receptors” (MERCK SHARP & DOHME CORP., priority 2016, dated 2017).

Where two headings read alike, the source gives them in different places.

This experiment concerns the target T1, human α7 nAChR stably expressed in a HEK cell line (with human RIC-3) (Homo sapiens, UniProt P36544).
T1 construct: PrecisION hnAChR α7/RIC-3
Briefly: Automated patch-clamp electrophysiology functional assay (Assay A), IonFlux HT, whole-cell population patch. In kind it is cell-based. The method in brief: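 Whole-cell population patch clamp (IonFlux HT) used HEK cells stably co-expressing human α7 and RIC-3, held at −60 mV at room temperature. Compounds were applied alone (agonism) or with 40 μM acetylcholine (potentiation), three ascending concentrations per recording. Currents were quantified relative to a 40 μM acetylcholine reference response, giving EC50.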
(The patch-clamp technique gives a direct electrical read-out from membranes.)

[1] abbreviates: automated patch-clamp electrophysiology functional assay (Assay A), potency class by EC50, read-out: α7 nAChR Potency.
Where [2] appears, read: electrophysiology EC50, HEK cells expressing human α7/RIC-3, 40 μM acetylcholine, holding potential −60 mV, room temperature, read-out: α7 nAChR EC50.

T1 sequence (P36544 23-502): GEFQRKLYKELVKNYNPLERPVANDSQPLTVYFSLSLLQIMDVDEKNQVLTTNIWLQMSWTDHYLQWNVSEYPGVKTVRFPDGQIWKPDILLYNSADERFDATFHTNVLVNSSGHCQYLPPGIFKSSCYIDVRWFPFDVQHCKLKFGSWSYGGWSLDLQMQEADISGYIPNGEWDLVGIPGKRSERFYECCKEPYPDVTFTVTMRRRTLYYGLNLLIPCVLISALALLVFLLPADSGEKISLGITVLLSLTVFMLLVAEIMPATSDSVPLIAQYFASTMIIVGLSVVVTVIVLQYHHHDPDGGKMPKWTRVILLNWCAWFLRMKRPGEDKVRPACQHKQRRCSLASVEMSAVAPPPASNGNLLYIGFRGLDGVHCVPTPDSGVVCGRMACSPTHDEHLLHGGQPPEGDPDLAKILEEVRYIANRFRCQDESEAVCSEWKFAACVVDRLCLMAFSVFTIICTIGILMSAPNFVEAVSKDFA

In the case of `NS(=O)(=O)c1ccc([C@@H]2C[C@H]2c2cnc(-c3ccccc3)s2)cc1` [Example 27, 4-[(1R,2R)-2-(2-Phenyl-1,3-thiazol-5-yl)cyclopropyl]benzenesulfonamide], the EC50 under setting [1] is 0.5 to 5 µM and the EC50 under setting [2] came out at 0.62 µM.

Consider `NS(=O)(=O)c1ccc([C@@H]2C[C@H]2c2noc(-c3cncc(F)c3)n2)cc1` [Example I36], for which the EC50 reads like this: under setting [1], 0.5 to 5 µM; under setting [2], 1.4 µM.

For the compound `CC(C)c1nsc(C2CC2c2ccc(S(N)(=O)=O)cc2)n1` (single isomer, unassigned; enantiomer b) [Example 18, 4-{trans-2-[3-(Propan-2-yl)-1,2,4-thiadiazol-5-yl]cyclopropyl}benzenesulfonamide, enantiomer B], the EC50 reads like this: under setting [1], 0.1 to 0.5 µM; under setting [2], 0.38 µM.

Take `NS(=O)(=O)c1ccc([C@@H]2C[C@H]2c2nc(-c3ccccc3)c[nH]2)cc1` [Example K12]: the EC50 under setting [1] was 5 to 50 µM.

As to `CC1(C)[C@@H](c2ccc(S(N)(=O)=O)cc2)[C@@H]1c1nc(C2CCCC2)no1` [Example D20], the EC50 is no more than 0.1 µM under setting [1] and 0.069 µM under setting [2].

In the case of `CC1(C)[C@@H](c2ccc(S(N)(=O)=O)cc2)[C@@H]1c1nc(-c2ccc(F)cc2F)no1` [Example C12], the EC50 under setting [1] lay in the range of 0.5 to 5 µM.

On to `Cc1sc([C@@H]2C[C@H]2c2ccc(S(N)(=O)=O)cc2)nc1-c1ccccc1` [Example 15, 4-[(1R,2R)-2-(5-Methyl-4-phenyl-1,3-thiazol-2-yl)cyclopropyl]benzenesulfonamide], for which the EC50 reads like this: under setting [1], no more than 0.1 µM; under setting [2], 0.071 µM.

As for `NS(=O)(=O)c1ccc([C@@H]2C[C@H]2c2noc(C3CCCCC3)n2)cc1` [Example I34], under setting [1], the EC50 was in the range of 0.1 to 0.5 µM.

As for `CC1(C)[C@H](c2ccc(S(N)(=O)=O)cc2)[C@H]1c1nc(-c2ccccc2C(F)(F)F)no1` [Example A13], the EC50 under setting [1] was 0.5 to 5 µM.

On to `CC1(C)[C@H](c2ccc(S(N)(=O)=O)cc2)[C@H]1c1nc(C2CCCCC2)no1` [Example 20, 4-((1R,3R)-3-(3-Cyclohexyl-1,2,4-oxadiazol-5-yl)-2,2-dimethylcyclopropyl)benzenesulfonamide], for which the EC50 is, setting by setting: under setting [1], 0.5 to 5 µM; under setting [2], 0.66 µM.

With `NS(=O)(=O)c1ccc([C@@H]2C[C@H]2c2nsc(N3CCCCC3)n2)cc1` [Example 29, 4-{(1R,2R)-2-[5-(Piperidin-1-yl)-1,2,4-thiadiazol-3-yl]cyclopropyl}benzenesulfonamide], the EC50 is 0.1 to 0.5 µM under setting [1] and 0.14 µM under setting [2].

Take `NS(=O)(=O)c1ccc(C2CC2c2nc(-c3cccc(F)c3)ns2)cc1` (single isomer, unassigned) [Example M4]: the EC50 under setting [1] was 0.1 to 0.5 µM and the EC50 under setting [2] came to 0.21 µM.

Turning to `COc1ccc(Cl)cc1-c1noc(C2C(c3ccc(S(N)(=O)=O)cc3)C2(F)F)n1` (stereo not drawn) [Example E2], the EC50 under setting [1] lay within 0.5 to 5 µM.

As for `CC1(C)[C@@H](c2ccc(S(N)(=O)=O)cc2)[C@@H]1c1nc(C2CCCCC2O)no1` (stereo partly drawn) [Example D32], under setting [1], the EC50 lay in the range of 0.5 to 5 µM.

Regarding `NS(=O)(=O)c1ccc([C@@H]2C[C@H]2c2csc(-c3ccccc3)n2)cc1` [Example 25, 4-[(1R,2R)-2-(2-Phenyl-1,3-thiazol-4-yl)cyclopropyl]benzenesulfonamide], the EC50 was 0.5 to 5 µM under setting [1] and 0.98 µM under setting [2].

As to `NS(=O)(=O)c1ccc([C@@H]2C[C@H]2c2ccn(Cc3cccc(F)c3)n2)cc1` [Example 23, 4-{(1R,2R)-2-[1-(3-Fluorobenzyl)-1H-pyrazol-3-yl]cyclopropyl}benzenesulfonamide], the EC50 by setting is: under setting [1], 0.1 to 0.5 µM; under setting [2], 0.46 µM.

In the case of `NS(=O)(=O)c1ccc([C@@H]2C[C@H]2c2cnc(C3CCCC3)o2)cc1` [Example L21], under setting [1], the EC50 fell in the range of 0.5 to 5 µM.

On to `CC1(C)[C@@H](c2ccc(S(N)(=O)=O)cc2)[C@@H]1c1nnc(C2CCCC2)o1` [Example G10], for which the EC50 by setting is: under setting [1], 0.5 to 5 µM; under setting [2], 0.63 µM.

With `Cc1ccc(F)cc1-c1noc([C@H]2[C@H](c3ccc(S(N)(=O)=O)cc3)C2(C)C)n1` [Example 1, 4-((1S,3S)-3-(3-(5-Fluoro-2-methylphenyl)-1,2,4-oxadiazol-5-yl)-2,2-dimethylcyclopropyl)-benzenesulfonamide], the EC50 under setting [1] fell in the range of 0.5 to 5 µM and the EC50 under setting [2] amounted to 4.1 µM.

`CC1(C)[C@@H](c2ccc(S(N)(=O)=O)cc2)[C@@H]1c1nc(C2CC(F)(F)C2)no1` [Example D18]: the EC50 is no more than 0.1 µM under setting [1] and 0.095 µM under setting [2].

As to `NS(=O)(=O)c1ccc([C@@H]2C[C@H]2c2nc(-c3ccc(F)cc3F)no2)cc1` [Example C13], the EC50 under setting [1] fell in the range of 0.1 to 0.5 µM and the EC50 under setting [2] turned out to be 0.16 µM.

Take `NS(=O)(=O)c1ccc([C@@H]2C[C@H]2c2nc(-c3c(F)cccc3F)no2)cc1` [Example C9]: the EC50 under setting [1] lay in the range of 0.5 to 5 µM.

`CC1(C)[C@H](c2ccc(S(N)(=O)=O)cc2)[C@H]1c1nnc(-c2c(F)cccc2C(F)(F)F)o1` [Example F3]: the EC50 runs as follows: under setting [1], 0.5 to 5 µM; under setting [2], 4.7 µM.

Regarding `CC1(C)[C@@H](c2ccc(S(N)(=O)=O)cc2)[C@@H]1c1nnc(CC2CC2)o1` [Example G11], the EC50 is 0.5 to 5 µM under setting [1] and 4.5 µM under setting [2].

Take `CC1(C)[C@@H](c2ccc(S(N)(=O)=O)cc2)[C@@H]1c1noc(-c2cc(N3CCOC3=O)ccc2F)n1` [Example H7]: the EC50 reads like this: under setting [1], 0.5 to 5 µM; under setting [2], 2.4 µM.

Regarding `CC1(C)[C@@H](c2ccc(S(N)(=O)=O)cc2)[C@@H]1c1nc(-c2ccccc2)no1` [Example C4], the EC50 is, setting by setting: under setting [1], 0.1 to 0.5 µM; under setting [2], 0.37 µM.

With `NS(=O)(=O)c1ccc([C@@H]2C[C@H]2c2ncc(C3CC3)o2)cc1` [Example K5], the EC50 was 0.1 to 0.5 µM under setting [1] and 0.35 µM under setting [2].

For `NS(=O)(=O)c1ccc([C@@H]2C[C@H]2c2nnc(C3CCCC3)s2)cc1` [Example G16], the EC50 under setting [1] is 0.5 to 5 µM.

On to `CC(=O)N1CCC(c2noc([C@@H]3[C@@H](c4ccc(S(N)(=O)=O)cc4)C3(C)C)n2)CC1` [Example B16], for which the EC50 reads like this: under setting [1], 0.5 to 5 µM; under setting [2], 2.2 µM.

`NS(=O)(=O)c1ccc([C@@H]2[C@@H](c3nc(C4CCCC4)no3)C2(F)F)cc1` [Example B19]: the EC50 reads like this: under setting [1], 0.1 to 0.5 µM; under setting [2], 0.37 µM.

Take `CC1(C)[C@@H](c2ccc(S(N)(=O)=O)cc2)[C@@H]1c1noc(-c2cc(C(F)(F)F)c3ccccc3n2)n1` [Example I13]: the EC50 runs as follows: under setting [1], 0.5 to 5 µM; under setting [2], 3.1 µM.

In the case of `CC1(C)C(c2ccc(S(N)(=O)=O)cc2)C1c1cc(-c2cccc(F)c2)on1` (racemic) [Example M6], the EC50 is 0.5 to 5 µM under setting [1] and 2.9 µM under setting [2].

For `CCOc1nc([C@@H]2[C@@H](c3ccc(S(N)(=O)=O)cc3)C2(C)C)ns1` [Example L9], under setting [1], the EC50 was in the range of 0.5 to 5 µM.

With `NS(=O)(=O)c1ccc([C@@H]2C[C@H]2c2noc(-c3cccc(F)c3)n2)cc1` [Example H15], the EC50 reads like this: under setting [1], 0.1 to 0.5 µM; under setting [2], 0.19 µM.

For `CC1(C)[C@@H](c2ccc(S(N)(=O)=O)cc2)[C@@H]1c1noc(-c2c(F)ccc(F)c2F)n1` [Example 3, 4-((1S,3S)-2,2-Dimethyl-3-(5-(2,3,6-trifluorophenyl)-1,2,4-oxadiazol-3-yl)cyclopropyl) benzenesulfonamide], the EC50 is, setting by setting: under setting [1], no more than 0.1 µM; under setting [2], 0.083 µM.

In the case of `NS(=O)(=O)c1ccc([C@@H]2C[C@H]2c2nsc(-c3cccc(F)c3)n2)cc1` [Example L10], the EC50 is, setting by setting: under setting [1], no more than 0.1 µM; under setting [2], 0.088 µM.

Regarding `CC1C(c2ccc(S(N)(=O)=O)cc2)C1c1nc(-c2ccccc2)no1` (single isomer, unassigned; diastereomer 4) [Example 22, 4-(2-Methyl-3-(3-phenyl-1,2,4-oxadiazol-5-yl)cyclopropyl)benzenesulfonamide, diastereomer 4], the EC50 under setting [1] lay within 0.1 to 0.5 µM and the EC50 under setting [2] came out at 0.12 µM.

In the case of `NS(=O)(=O)c1ccc([C@H]2[C@H](c3nc(-c4ccccc4)no3)C2(F)F)cc1` [Example C21], the EC50 is no more than 0.1 µM under setting [1] and 0.083 µM under setting [2].

In the case of `CC1(C)[C@@H](c2ccc(S(N)(=O)=O)cc2)[C@@H]1c1noc(C2(c3cnccn3)CC2)n1` [Example I12], under setting [1], the EC50 fell in the range of 0.5 to 5 µM.

For `NS(=O)(=O)c1ccc([C@@H]2[C@@H](c3nsc(-c4ccccc4)n3)C2(F)F)cc1` [Example L13], the EC50 was 0.5 to 5 µM under setting [1] and 0.74 µM under setting [2].

`CC1(C)[C@@H](c2ccc(S(N)(=O)=O)cc2)[C@@H]1c1nc(-c2cncc(F)c2)no1` [Example D6]: the EC50 was 0.5 to 5 µM under setting [1] and 0.82 µM under setting [2].

With `NS(=O)(=O)c1ccc([C@@H]2C[C@H]2c2nc(-c3cccc(F)c3F)no2)cc1` [Example C15], the EC50 is, setting by setting: under setting [1], 0.1 to 0.5 µM; under setting [2], 0.34 µM.

In the case of `C#Cc1ccc(-c2nc([C@H]3[C@H](c4ccc(S(N)(=O)=O)cc4)C3(C)C)no2)cc1` [Example H11], the EC50 is, setting by setting: under setting [1], 0.5 to 5 µM; under setting [2], 1.9 µM.
